This note sets out measurements from patent publication US6544750B1, “Peptide analogs as selective inhibitors of thrombin activation of protease activated receptor 1” (Thromgen, Inc., priority 1999, dated 2003).

Assay [1] has as its system platelets (platelet-rich plasma). In words: γ-thrombin-induced platelet aggregation in platelet-rich plasma. Conditions: for Fold Increase in Aggregation Inhibition over RPPGF: RGDO4C sublibrary, γ-thrombin, compared to RPPGF at 0.2 mM. It counts as cell-based, human. The procedure:
Fresh whole blood was collected and mixed with 0.013 M sodium citrate and platelet-rich plasma was prepared according to the method of Meloni et al., J. Biol. Chem. 266, 6786 (1991). Platelet-rich plasma with a normalized platelet count between 2-2.5×10^8 platelets/ml was added to a cuvette of an aggregometer (Chronlog Corp., Havertown, Pa.), standardized using the protocol of Meloni et al., supra. Peptides to be examined were added to the cuvette and the mixture stabilized for a few moments. Once the baseline was stabilized, γ-thrombin (10-70 NM) (Haematologic Technologies, Essex Junction, Vt.) was added to determine the minimal concentration of the agonist necessary to achieve full platelet aggregation. All investigations with peptides were performed using threshold concentrations of γ-thrombin. Aggregation was allowed to proceed for 5 minutes before stopping. When ADP-induced platelet aggregation studies were performed, 1-5 μM ADP (Sigrna) was added to the cuvette containing platelet-rich plasma.

In assay [2] the test system is Normal human lung fibroblasts (NHLF). In words: α-thrombin-induced calcium mobilization in fibroblasts (fura-2). It counts as cell-based. Particulars: 0.2 mM peptide; for Ca2+ % Inhibition At 0.2 mM Peptide: thrombin-induced calcium mobilization in fibroblasts. The procedure:
The second assay developed to assess peptides from the combinatorial libraries uses inhibition of α-thrombin-induced calcium mobilization in fibroblasts. Normal human lung fibroblasts (NHLF) were purchased from Clonetics, San Diego, Calif., an affiliate of Bio-Wittaker, Walkersville, Md. The cytoplasmic free Ca^2+ concentration ([Ca^2+]i) was measured using the fluorescent Ca^2+ indicator fura-2 (Molecular Probes, Inc., Eugene, Oreg.). Suspension of fibroblasts in Hepes-Tyrode's buffer were loaded with fura-2 by incubation at 37° C. with 2 μM fura-2/acetoxymethyl ester for 45 minutes according to the method of Rasmussen et al., J. Biol. Chem. 268, 14322 (1993). The labeled fibroblasts were separated from excess probe by washing by centrifugation at 1000 rpm (180×g). Aliquots of the labeled fibroblasts were transferred into a quartz cuvette with a magnetic stirrer, which was then placed in a thennostatically controlled chamber at 37° C. in a fluorescence spectrophotometer (Perkin-Elmer LS50B spectrofluorometer, Chicago, Ill.). Reagents, test peptide (SEQ ID NO: 5) (from 0.2 mM to effective lower concentration), and α-thrombin (2-4 nM), were sequentially added directly to the cuvette. The excitation wavelengths varied between 340 and 380 nm. Fluorescence was measured by recording emitted light at 510 nm as reported by Fisher et al., Mol Pharm. 35, 195 (1989). The minimum emission was determined on a solubilized fibroblast sample in the presence of 10 mM EDTA; maximum emission was determined on the same sample with 10 mM Ca^2+ added. The intrafibroblast free Ca^2+ concentration was calculated by the method of Grykiewicz et al., J. Biol. Chem. 260, 3440 (1985). The ratio of the fluorescence readings was calculated as R=340/380 nm and processed according to the equation [Ca^2+]i=KD((R−Rmim)/Rmax−R)) (Sf2/Sb2) to determine the intrafibroblast free Ca^2+ concentration. The KD for fura-2 was assumed to be 224 nM. Rmax and Rmin are the maximum and minimum fluorescence ratios measured at the end of the experiment, respectively; Sf2 and Sb2 are the fluorescence values at 380 nm in the absence and presence of saturating [Ca 2+], respectively. The reaction was monitored for 3-5 minutes. […] In FIG. 4, peptide RGDWC (SEQ ID NO: 20) at 0.2 mM inhibited 31% of 4 nM α-thrombin-induced Ca^2+ mobilization in fibroblasts.

The target of assay [3] is biotin-NAT12 (NATLDPRSFLLR, peptide from PAR1) (Homo sapiens, UniProt P25116). In words: Biotin-NAT12 binding assay to peptides coupled to microtiter plates. Particulars: relative to RPPGF given arbitrary binding level of 1. The procedure: A third assay was developed to ascertain the ability of biotin-NAT12 (NATLDPRSFLLR, SEQ ID NO: 41) to directly bind to peptides linked to microtiter plates. In this assay, peptide analogs were linked to microtiter plate cuvette wells by incubation of the peptide in 0.1 M Na2CO3, pH 9.6 buffer overnight at 4° C. After coupling the peptide to the cuvette well, the wells were dumped and each well was blocked with 1% bovine serun albumin in 0.01 M Na3PO4, 0.15 M NaCl, at pH 7.4. After incubation for 1 hour, the wells were dumped and washed three times with PBS-Tween. The wells were then incubated with biotin-NAT12. The amount of biotin-NAT12 bound was determined by adding streptavidin-peroxidase followed by adding turbo TMB (Pierce).
In decreasing order of binding level, these peptides include: RGKSC, RGKMC, RGKHC, RGKKC, RGKFC, RGKLC, RGKWC, and RGKVC (SEQ ID NOS 18, 7, 13, 14, 11, 1, 5 and 19, respectively). […] The best to least RGDO4C (SEQ ID NO: 44) peptides to bind biotin-NAT12 listed in Table VI are: RGDSC, RGDGC, RGDQC, RGDEC, RGDIC, RGDPC, RGDDC, and RGDYC (SEQ ID NOS 34, 28, 23, 22, 36, 38, 27 and 35, respectively). A solid phase peptide-peptide binding assay was used to determine biotin-NAT12 binding to library peptides. Test peptides in 0.1 M Na2CO3, pH 9.6 buffer, at 10 μg/well in 50 μl volume, were coupled to microtiter plate wells by overnight incubation at 4° C. After incubation, the contents of the wells were discarded and the wells were washed with a pH 7.4 buffer containing 0.01 M Na3PO4, 0.15 M NaCl, and 0.01% Tween 20. After blocking each well with 1% radioimmunoassay grade bovine serum albumin, the linked peptides were incubated with 100 μl of 100 μM biotin-NAT12 for 1 hour at 37° C. After incubation, the contents of the wells were dumped and the wells were washed three times (100 μl/well each time) with the buffer identified above. Each well then was incubated with 100 μl of 2 μg/ml solution of Immuno-Pure streptoavidin horeseradish peroxidase conjugate (Pierce Chemical Co., […], Ill.) for 1 hour at room temperature. The contents of the wells were discarded and the wells were washed three times as described above. The wells were then incubated with 100 μl of peroxidase-specific fast reacting substrate, turbo-3,3′,5,5′-tetramethylbenzidine (turbo-TMB, Pierce) for 5 minutes at room temperature and the developing color reaction was stopped by the addition of 100 μof 1 M phosphoric acid. The absorbance was measured at 450 nm using a Microplate Auto Reader EL311 (Bio-Tek, Winooski, Vt.).

Ends that are not written are not given here.

On to “Arg-Gly-Asp-Trp-Cys (RGDWC-NH2) [peptide of the H-R-G-D-O4-C-NH2 sublibrary]”, for which, in assay [1] (70 nM γ-thrombin), the “concentration down to which peptide inhibited γ-thrombin-induced platelet aggregation” value was at least 25 µM and the “peptide concentration at which γ-thrombin-induced platelet aggregation returned” value was determined as 6.25 µM. Further, in assay [1] (70 nM γ-thrombin, platelet-rich plasma), the “peptide concentration that abolished (completely inhibited) γ-thrombin-induced platelet aggregation” value came out at 0.2 mM. Moreover, in assay [1], the “Fold Increase in Aggregation Inhibition over RPPGF” value was 31.7 fold. Moreover, the “effect on thrombin-induced Ca2+ mobilization (in words)” value in assay [2] (4 nM α-thrombin) is “almost had no effect”. Also, the “inhibition of α-thrombin-induced Ca2+ mobilization” value in assay [2] (4 nM α-thrombin, fibroblasts) was 31%. The “Ca2+ % Inhibition At 0.2 mM Peptide” value in assay [2] (RGDO4C sublibrary) worked out at 31.9%. Moreover, in assay [3] (RGDO4C sublibrary), the “Level of Binding to Biotin-NAT12” value was found to be 0.374.
On to “RGDAC: peptide of the H-R-G-D-O4-C-NH2 sublibrary (H-RGDAC-NH2)”, for which the “Ca2+ % Inhibition At 0.2 mM Peptide” value in assay [2] (RGDO4C sublibrary) turned out to be 11%. In assay [3] (RGDO4C sublibrary), the “Level of Binding to Biotin-NAT12” value turned out to be 0.8.
As for “RGDDC: peptide of the H-R-G-D-O4-C-NH2 sublibrary (H-RGDDC-NH2)”, in assay [1], the “Fold Increase in Aggregation Inhibition over RPPGF” value is 7.5 fold. The “Ca2+ % Inhibition At 0.2 mM Peptide” value in assay [2] (RGDO4C sublibrary) was found to be 8.9%. Besides, the “Level of Binding to Biotin-NAT12” value in assay [3] (RGDO4C sublibrary) turned out to be 1.11.
Take “RGDEC: peptide of the H-R-G-D-O4-C-NH2 sublibrary (H-RGDEC-NH2)”: the “Fold Increase in Aggregation Inhibition over RPPGF” value in assay [1] worked out at 20 fold. The “Ca2+ % Inhibition At 0.2 mM Peptide” value in assay [2] (RGDO4C sublibrary) turned out to be 1.96%. In assay [3] (RGDO4C sublibrary), the “Level of Binding to Biotin-NAT12” value turned out to be 1.28.
The like results for “RGDFC: peptide of the H-R-G-D-O4-C-NH2 sublibrary (H-RGDFC-NH2)” were, in that order, 25 fold, 30.3% and 0.671.
The like results for “RGDGC: peptide of the H-R-G-D-O4-C-NH2 sublibrary (H-RGDGC-NH2)” were, in that order, 7.5 fold, 9.9% and 1.39.
For “RGDHC: peptide of the H-R-G-D-O4-C-NH2 sublibrary (H-RGDHC-NH2)”, in that order: 14.8 fold, 9.9% and 0.759.
On to “RGDIC: peptide of the H-R-G-D-O4-C-NH2 sublibrary (H-RGDIC-NH2)”, for which the “Fold Increase in Aggregation Inhibition over RPPGF” value in assay [1] is 3.8 fold. The “Ca2+ % Inhibition At 0.2 mM Peptide” value in assay [2] (RGDO4C sublibrary) worked out at 9.3%. Also, the “Level of Binding to Biotin-NAT12” value in assay [3] (RGDO4C sublibrary) was determined as 1.22.
The like results for “RGDKC: peptide of the H-R-G-D-O4-C-NH2 sublibrary (H-RGDKC-NH2)” were, in that order, 7.5 fold, 28.1% and 0.67.
For “RGDLC: peptide of the H-R-G-D-O4-C-NH2 sublibrary (H-RGDLC-NH2)”, in that order: 7.5 fold, 0% and 0.98.
Take “RGDPC: peptide of the H-R-G-D-O4-C-NH2 sublibrary (H-RGDPC-NH2)”: the “Ca2+ % Inhibition At 0.2 mM Peptide” value in assay [2] (RGDO4C sublibrary) is given as 4.13%. In addition, in assay [3] (RGDO4C sublibrary), the “Level of Binding to Biotin-NAT12” value is 1.12.
In the case of “RGKAC: peptide of the H-R-G-K-O4-C-NH2 sublibrary (H-RGKAC-NH2)”, the “Ca2+ % Inhibition At 0.2 mM Peptide” value in assay [2] (RGKO4C sublibrary) was 5.2%. Moreover, the “Level of Binding to Biotin-NAT12” value in assay [3] (RGKO4C sublibrary) was 0.689.
Regarding “RGKDC: peptide of the H-R-G-K-O4-C-NH2 sublibrary (H-RGKDC-NH2)”, in assay [2] (RGKO4C sublibrary), the “Ca2+ % Inhibition At 0.2 mM Peptide” value worked out at 26.7%. Besides, the “Level of Binding to Biotin-NAT12” value in assay [3] (RGKO4C sublibrary) was found to be 0.82.
For “RGKEC: peptide of the H-R-G-K-O4-C-NH2 sublibrary (H-RGKEC-NH2)”, in that order: 13.8% and 0.926.
The like results for “RGKFC: peptide of the H-R-G-K-O4-C-NH2 sublibrary (H-RGKFC-NH2)” were, in that order, 2.74% and 1.5.
For the substance “RGKGC: peptide of the H-R-G-K-O4-C-NH2 sublibrary (H-RGKGC-NH2)”, in assay [2] (RGKO4C sublibrary), the “Ca2+ % Inhibition At 0.2 mM Peptide” value came out at 12.4%. The “Level of Binding to Biotin-NAT12” value in assay [3] (RGKO4C sublibrary) was 1.0.
For “RGKHC: peptide of the H-R-G-K-O4-C-NH2 sublibrary (H-RGKHC-NH2)”, in that order: 31.2% and 2.1.
With “RGKKC: peptide of the H-R-G-K-O4-C-NH2 sublibrary (H-RGKKC-NH2)”, the “Ca2+ % Inhibition At 0.2 mM Peptide” value in assay [2] (RGKO4C sublibrary) turned out to be 38.9%. The “Level of Binding to Biotin-NAT12” value in assay [3] (RGKO4C sublibrary) is listed as 1.8.
Turning to “RGKNC: peptide of the H-R-G-K-O4-C-NH2 sublibrary (H-RGKNC-NH2)”, the “Ca2+ % Inhibition At 0.2 mM Peptide” value in assay [2] (RGKO4C sublibrary) is 0%. Moreover, the “Level of Binding to Biotin-NAT12” value in assay [3] (RGKO4C sublibrary) was 1.2.
Take “RGKPC: peptide of the H-R-G-K-O4-C-NH2 sublibrary (H-RGKPC-NH2)”: the “Ca2+ % Inhibition At 0.2 mM Peptide” value in assay [2] (RGKO4C sublibrary) is recorded as 31.13%. Besides, the “Level of Binding to Biotin-NAT12” value in assay [3] (RGKO4C sublibrary) is reported as 1.2.
Take “RGKQC: peptide of the H-R-G-K-O4-C-NH2 sublibrary (H-RGKQC-NH2)”: the “Ca2+ % Inhibition At 0.2 mM Peptide” value in assay [2] (RGKO4C sublibrary) stood at 28%. The “Level of Binding to Biotin-NAT12” value in assay [3] (RGKO4C sublibrary) is listed as 0.374.
Consider “RGKSC: peptide of the H-R-G-K-O4-C-NH2 sublibrary (H-RGKSC-NH2)”, for which, in assay [2] (RGKO4C sublibrary), the “Ca2+ % Inhibition At 0.2 mM Peptide” value was found to be 0.01%. Also, the “Level of Binding to Biotin-NAT12” value in assay [3] (RGKO4C sublibrary) is on record as 2.2.
As for “RGKVC: peptide of the H-R-G-K-O4-C-NH2 sublibrary (H-RGKVC-NH2)”, the “Ca2+ % Inhibition At 0.2 mM Peptide” value in assay [2] (RGKO4C sublibrary) was found to be 17.3%. The “Level of Binding to Biotin-NAT12” value in assay [3] (RGKO4C sublibrary) is 1.2.
